Reference: BigSolDB 2.1

C[C@H]1[C@H](C)CC[C@]2(C(=O)O)CC[C@]3(C)C(=CC[C@@H]4[C@@]5(C)CC[C@H](O)C(C)(C)[C@@H]5CC[C@]43C)[C@H]12
solubility (mole fraction)
Settings | 278.15 K | 283.15 K | 288.15 K | 293.15 K | 298.15 K | 303.15 K | 308.15 K | 313.15 K | 318.15 K | 323.15 K
in acetone | 0.000384 | 0.000473 | 0.00058 | 0.000707 | 0.000836 | 0.001 | 0.00119 | 0.00139 | 0.00162 | 0.00187
in methanol | 0.000447 | 0.000505 | 0.000579 | 0.000662 | 0.000746 | 0.000842 | 0.000955 | 0.00107 | 0.00121 | 0.00135
in water | 1.16e-07 | 1.34e-07 | 1.55e-07 | 1.76e-07 | 2.02e-07 | 2.28e-07 | 2.57e-07 | 2.88e-07 | 3.18e-07 | 3.54e-07
